{"source": "ChEMBL document CHEMBL4330132", "about": "“5-Keto-3-cyano-2,4-diaminothiophenes as selective maternal embryonic leucine zipper kinase inhibitors” (Bioorg Med Chem Lett, 2019)", "key": {"[1]": {"target": "Aurora kinase A (Homo sapiens) (UniProt O14965)", "test": "Binding affinity to wild-type human partial length AURKA (E122 to K401 residues) expressed in mammalian expression system assessed as residual binding level at 1 uM by Kinomescan method relative to control"}, "[2]": {"target": "Serine/threonine-protein kinase NIM1 (Homo sapiens) (UniProt Q8IY84)", "test": "Binding affinity to wild-type human partial length NIM1 (Q44 to N355 residues) expressed in mammalian expression system assessed as residual binding level at 1 uM by Kinomescan method relative to control"}, "[3]": {"target": "Serine/threonine-protein kinase tousled-like 2 (Homo sapiens) (UniProt Q86UE8)", "test": "Binding affinity to wild-type human partial length TLK2 (E424 to N749 residues) expressed in bacterial expression system assessed as residual binding level at 1 uM by Kinomescan method relative to control"}, "[4]": {"target": "Myotonin-protein kinase (Homo sapiens) (UniProt Q09013)", "test": "Binding affinity to wild-type human partial length DMPK (V47 to V415 residues) expressed in bacterial expression system assessed as residual binding level at 1 uM by Kinomescan method relative to control"}, "[5]": {"target": "Cytoplasmic tyrosine-protein kinase BMX (Homo sapiens) (UniProt P51813)", "test": "Binding affinity to wild-type human full length BMX (M1 to H675 residues) expressed in bacterial expression system assessed as residual binding level at 1 uM by Kinomescan method relative to control"}, "[6]": {"target": "Casein kinase I isoform delta (Homo sapiens) (UniProt P48730)", "test": "Binding affinity to wild-type human full length CSNK1D (M1 to K409 residues) expressed in bacterial expression system assessed as residual binding level at 1 uM by Kinomescan method relative to control"}, "[7]": {"target": "Serine/threonine-protein kinase PLK3 (Homo sapiens) (UniProt Q9H4B4)", "test": "Binding affinity to wild-type human partial length PLK3 (A42 to L334 residues) expressed in mammalian expression system assessed as residual binding level at 1 uM by Kinomescan method relative to control"}, "[8]": {"target": "Rhodopsin kinase GRK1 (Homo sapiens) (UniProt Q15835)", "test": "Binding affinity to wild-type human full length GRK1 (M1 to S563 residues) expressed in mammalian expression system assessed as residual binding level at 1 uM by Kinomescan method relative to control"}, "[9]": {"target": "Dual specificity mitogen-activated protein kinase kinase 2 (Homo sapiens) (UniProt P36507)", "test": "Binding affinity to wild-type human full length MEK2 (M1 to V400 residues) expressed in mammalian expression system assessed as residual binding level at 1 uM by Kinomescan method relative to control"}, "[10]": {"target": "Serine/threonine-protein kinase TAO3 (Homo sapiens) (UniProt Q9H2K8)", "test": "Binding affinity to wild-type human partial length TAOK3 (M1 to T316 residues) expressed in mammalian expression system assessed as residual binding level at 1 uM by Kinomescan method relative to control"}, "[11]": {"tested_on": "Tyrosine-protein kinase ABL1 (Homo sapiens), P00519 [H396P]", "test": "Binding affinity to human non-phosphorylated ABL1 H396P mutant (S229 to K512 residues) expressed in mammalian expression system assessed as residual binding level at 1 uM by Kinomescan method relative to control"}, "[12]": {"target": "Tyrosine-protein kinase ABL1 (Homo sapiens) (UniProt P00519)", "test": "Binding affinity to wild-type human non-phosphorylated ABL1 (S229 to K512 residues) expressed in mammalian expression system assessed as residual binding level at 1 uM by Kinomescan method relative to control"}, "[13]": {"target": "Citron Rho-interacting kinase (Homo sapiens) (UniProt O14578)", "test": "Binding affinity to wild-type human partial length CIT (M68 to E432 residues) expressed in bacterial expression system assessed as residual binding level at 1 uM by Kinomescan method relative to control"}, "[14]": {"target": "Inhibitor of nuclear factor kappa-B kinase subunit alpha (Homo sapiens) (UniProt O15111)", "test": "Binding affinity to wild-type human full length IKK-alpha (M1 to E745 residues) expressed in mammalian expression system assessed as residual binding level at 1 uM by Kinomescan method relative to control"}, "[15]": {"target": "Serine/threonine-protein kinase pim-1 (Homo sapiens) (UniProt P11309)", "test": "Binding affinity to wild-type human partial length PIM1 (A15 to K313 residues) expressed in bacterial expression system assessed as residual binding level at 1 uM by Kinomescan method relative to control"}, "[16]": {"target": "Calcium/calmodulin-dependent protein kinase type II subunit beta (Homo sapiens) (UniProt Q13554)", "test": "Binding affinity to wild-type human partial length CAMK2B (M1 to Q380 residues) expressed in bacterial expression system assessed as residual binding level at 1 uM by Kinomescan method relative to control"}, "[17]": {"target": "Serine/threonine-protein kinase Nek9 (Homo sapiens) (UniProt Q8TD19)", "test": "Binding affinity to wild-type human partial length NEK9 (P32 to R328 residues) expressed in bacterial expression system assessed as residual binding level at 1 uM by Kinomescan method relative to control"}, "[18]": {"target": "Fibroblast growth factor receptor 3 (Homo sapiens) (UniProt P22607)", "test": "Binding affinity to wild-type human partial length FGFR3 (R442 to S771 residues) expressed in bacterial expression system assessed as residual binding level at 1 uM by Kinomescan method relative to control"}, "[19]": {"tested_on": "Mast/stem cell growth factor receptor Kit (Homo sapiens), P10721 [D816H]", "test": "Binding affinity to human partial length KIT D816H mutant (I571 to D952 residues) expressed in mammalian expression system assessed as residual binding level at 1 uM by Kinomescan method relative to control"}, "[20]": {"target": "MAP/microtubule affinity-regulating kinase 4 (Homo sapiens) (UniProt Q96L34)", "test": "Binding affinity to wild-type human partial length MARK4 (K29 to G340 residues) expressed in bacterial expression system assessed as residual binding level at 1 uM by Kinomescan method relative to control"}, "[21]": {"tested_on": "Mast/stem cell growth factor receptor Kit (Homo sapiens), P10721 [L576P]", "test": "Binding affinity to human partial length KIT L576P mutant (Y545 to D952 residues) expressed in bacterial expression system assessed as residual binding level at 1 uM by Kinomescan method relative to control"}, "[22]": {"target": "Tyrosine-protein kinase JAK1 (Homo sapiens) (UniProt P23458)", "test": "Binding affinity to wild-type human partial length JAK1 JH1 catalytic domain (V856 to K1154 residues) expressed in bacterial expression system assessed as residual binding level at 1 uM by Kinomescan method relative to control"}, "[23]": {"target": "Platelet-derived growth factor receptor beta (Homo sapiens) (UniProt P09619)", "test": "Binding affinity to wild-type human partial length PDGFRB (V582 to Y1009 residues) expressed in bacterial expression system assessed as residual binding level at 1 uM by Kinomescan method relative to control"}, "[24]": {"target": "Myosin light chain kinase, smooth muscle (Homo sapiens) (UniProt Q15746)", "test": "Binding affinity to wild-type human full length MYLK (M854 to E1845 residues) expressed in mammalian expression system assessed as residual binding level at 1 uM by Kinomescan method relative to control"}}}
{"compound": "CC(C)Nc1sc(C(=O)c2ccc(Cl)s2)c(N)c1C#N", "values": [{"measurement": "Activity", "setting": "[1]", "result": 100, "unit": "%"}, {"measurement": "Activity", "setting": "[2]", "result": 97, "unit": "%"}, {"measurement": "Activity", "setting": "[3]", "result": 100, "unit": "%"}, {"measurement": "Activity", "setting": "[4]", "result": 100, "unit": "%"}, {"measurement": "Activity", "setting": "[5]", "result": 100, "unit": "%"}, {"measurement": "Activity", "setting": "[6]", "result": 59, "unit": "%"}, {"measurement": "Activity", "setting": "[7]", "result": 85, "unit": "%"}, {"measurement": "Activity", "setting": "[8]", "result": 100, "unit": "%"}, {"measurement": "Activity", "setting": "[9]", "result": 100, "unit": "%"}, {"measurement": "Activity", "setting": "[10]", "result": 100, "unit": "%"}, {"measurement": "Activity", "setting": "[11]", "result": 100, "unit": "%"}, {"measurement": "Activity", "setting": "[12]", "result": 100, "unit": "%"}, {"measurement": "Activity", "setting": "[13]", "result": 72, "unit": "%"}, {"measurement": "Activity", "setting": "[14]", "result": 100, "unit": "%"}, {"measurement": "Activity", "setting": "[15]", "result": 92, "unit": "%"}, {"measurement": "Activity", "setting": "[16]", "result": 60, "unit": "%"}, {"measurement": "Activity", "setting": "[17]", "result": 85, "unit": "%"}, {"measurement": "Activity", "setting": "[18]", "result": 100, "unit": "%"}, {"measurement": "Activity", "setting": "[19]", "result": 77, "unit": "%"}, {"measurement": "Activity", "setting": "[20]", "result": 65, "unit": "%"}, {"measurement": "Activity", "setting": "[21]", "result": 64, "unit": "%"}, {"measurement": "Activity", "setting": "[22]", "result": 100, "unit": "%"}, {"measurement": "Activity", "setting": "[23]", "result": 54, "unit": "%"}, {"measurement": "Activity", "setting": "[24]", "result": 71, "unit": "%"}]}
